Experimental data as given in patent publication US20250186410A1, “DUAL INHIBITORS OF TRYPTOPHAN DIOXYGENASES (IDO1 AND TDO) AND THEIR USE IN THERAPY” (ANTIDO THERAPEUTICS INTERNATIONAL SÀRL, priority 2022, published 2025).

Assays:
[1] = tested on: lung cancer cell line ALC (cisplatin-resistant); assay: Growth inhibition and cytotoxicity assay (trypan blue), ALC cells; format: cell-based; conditions: Homo sapiens
Experimental: (§1) In this study 3 different human-derived lung cancer cell lines were exposed to vehicle control (parental cells B, S and A) or long-term incubation with cisplatin (BC, SC and ALC cells). Long-term incubation with cisplatin induced cisplatin-resistance in the BC, SC and ALC cell lines.
(§2) Cells were seeded in 24-well dishes and treated with various concentrations of inhibitors (i.e. Epacadostat or AT-0174). Briefly, the culture media as well as the trypsinized cells were collected and this mixture was centrifuged at 400×g for 5 min. The supernatant was discarded, re-suspended in 1 mL of Hank's buffer, and assayed for live cells and death cells using trypan blue exclusion method.
(§3) Data from in vitro experiments were performed from three separate biological replicates which were isolated and analyzed in technical triplicates. Separate measurements using the two-tailed t-test and the results were expressed as mean±standard deviation.

[2] = target: Recombinant human IDO1 (rhIDO1) (Homo sapiens (Human), UniProt P14902); assay: Enzymatic assay for IDO1 activity; format: biochemical; conditions: read-out: Isolated IDO1 Enayme Assay IC50
Recombinant human IDO1 (rhIDO1), sequence (P14902 whole entry): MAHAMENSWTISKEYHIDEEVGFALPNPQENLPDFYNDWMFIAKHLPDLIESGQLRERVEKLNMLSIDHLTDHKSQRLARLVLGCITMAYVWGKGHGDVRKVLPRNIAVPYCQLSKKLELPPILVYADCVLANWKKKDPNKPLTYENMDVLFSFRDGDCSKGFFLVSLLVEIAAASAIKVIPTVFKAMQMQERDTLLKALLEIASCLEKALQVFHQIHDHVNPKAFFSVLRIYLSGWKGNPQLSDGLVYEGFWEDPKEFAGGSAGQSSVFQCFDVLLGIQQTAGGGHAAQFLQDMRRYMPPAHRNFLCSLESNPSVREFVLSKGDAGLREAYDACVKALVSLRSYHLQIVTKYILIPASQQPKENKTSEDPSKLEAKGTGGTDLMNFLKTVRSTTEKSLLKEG
Experimental: Recombinant human IDO1 (rhIDO1) was expressed and purified from cultures of EC538 strain of E. coli transformed with pREP4 and pQE9-IDO plasmid. Reaction mixes were set up in 384-well microplates containing 50 mM phosphate buffer, 10 mM ascorbic, 10 μM methylene blue, 100 μg/mL catalase, 80 μM TRP, 0.01% Tween 20 (v/v) mixed with rhIDO1 (15 μL) at a final concentration of 9 nM in a total volume of 30 μL assay medium. The plates were incubated at 37° C. for 30 min, and the enzymatic reaction was terminated by adding piperidine (200 mM) and heated at 65° C. for 20 min. Fluorescence intensity was read at λex 400 nm and λem 500 nm. Test compounds were dissolved in 100% DMSO and pre-diluted in assay medium prior to adding rhIDO1. IDO1 inhibition (%) was calculated as
All experiments were carried out in triplicates, and statistical Analyses were conducted in Prism v5 (Graphpad Software, Inc., La Jolla, CA, USA).

[3] = tested on: lung cancer cell line B (cisplatin-sensitive); assay: Growth inhibition and cytotoxicity assay (trypan blue), B cells; format: cell-based; conditions: Homo sapiens
Experimental: as §1, §2, §3

[4] = MTT cell viability in the cellular IDO1/TDO experiments; format: cell-based; conditions: mouse, read-out: Cytotoxicity IC50
Experimental: The viability of the cells in each well in the same experiment was determined using the 3-(4,5-dimethylthiazolyl-2-yl)-2,5-diphenyltetrazolium bromide (MTT) colourimetric assay. After the removal of the supernatant for determination of IDO1 inhibition, the cells were incubated with MTT (500 μg/mL) until crystal formation was observed. Plates were centrifuged for 15 min at 2500 g, and then all the supernatant in then wells was discarded. DMSO (100 μL/well) was added to dissolve the crystals and then the absorbance in each well was measured at 570 nm. Cell viability in each well was expressed as a percentage of untreated controls. Triplicate cultures were used for all experiments unless stated otherwise.
The viability of the cells in each well in the same experiment was determined using the 3-(4,5-dimethylthiazolyl-2-yl)-2,5-diphenyltetrazolium bromide (MTT) colourimetric assay.

[5] = tested on: LLC-CR (cisplatin-resistant cell tumours); assay: Tumor growth in syngeneic mouse model, LLC-CR allografts; format: in vivo; conditions: for tumor weight: LLC-CR allograft mice, FIG. 2C; for tumor volume, Mean: LLC-CR tumours, AT-0174 170 mg/kg, epacadostat 200 mg/kg P.O. daily; for Tumor growth: cisplatin-resistant tumor group, FIG. 2B
Experimental: Cisplatin resistant mouse cell lines (LLC-CR) were derived from LLC (mouse Lewis lung cancer cells (epidermoid carcinoma), ATCC) through treatment with increasing doses of cisplatin intermittently. LLC-CR clones were maintained in half GI50 dosage concentration. […] The cultures were observed daily and allowed to grow until they reached an initial cell density. […] After the cells recovered from cisplatin toxicity, they were treated again with increasing dosage of cisplatin for 24 h. These cells are seeded at 500-1000 cells per dish and cultured for 5-7 days. Clones are selected and expanded as well as tested for cisplatin sensitivity. Similar processes of exposure are carried out for a third and fourth time to generate higher resistant clones. At the end, the resistance clones (LLC-CR) were maintained in media completed with 1 μg/ml (half GI50 dosage) of cisplatin. […] Both compounds were administered via oral gavage (P.O.) and diluted with 95% water+5% methylcellulose (0.5%) and stored at −20° C. Compound was prepared every 5 days. Methyl cellulose (95+5%) was used as control (“Veh”). […] At the end of the study, mice were sacrificed and the blood, tumor, and lymph nodes were collected and processed for KYN and tryptophan (TRP) measurement and immune cell assessment respectively. In this example, LLC-CR from the Lewis lung mouse cell line (LLC; see methods) was used to determine, in vivo, the effect of IDO1 or dual IDO1/TDO inhibition on tumor growth. Mice were inoculated with either LLC or LLC-CR and treated with epacadostat (200 mg/kg P.O. 1/day) or AT-0174 (170 mg/kg P.O. 1/day).

[6] = tested on: lung cancer cell line A (cisplatin-sensitive); assay: Growth inhibition and cytotoxicity assay (trypan blue), A cells; format: cell-based; conditions: Homo sapiens
Experimental: as §1, §2, §3

[7] = tested on: lung cancer cell line BC (cisplatin-resistant); assay: Growth inhibition and cytotoxicity assay (trypan blue), BC cells; format: cell-based; conditions: Homo sapiens
Experimental: as §1, §2, §3

[8] = tested on: lung cancer cell line S (cisplatin-sensitive); assay: Growth inhibition and cytotoxicity assay (trypan blue), S cells; format: cell-based; conditions: Homo sapiens
Experimental: as §1, §2, §3

[9] = tested on: lung cancer cell line SC (cisplatin-resistant); assay: Growth inhibition and cytotoxicity assay (trypan blue), SC cells; format: cell-based; conditions: Homo sapiens
Experimental: as §1, §2, §3

## Nc1noc2nc(Cl)c(F)cc12 [Compound 66, 6-Chloro-5-fluoroisoxazolo[5,4-b]pyridin-3-amine]
[1]; 12.5 μM AT-0174
  viability at 12.5 µM: 76.7 ± 4.2%
[1]; 25.0 μM AT-0174
  viability at 25 µM: 62.5 ± 4.9%
[1]; 50.0 μM AT-0174
  viability at 50 µM: 67.3 ± 13.4%
[2]
  IC50: < 1 µM
[3]; 12.5 μM AT-0174
  viability at 12.5 µM: 84.8 ± 11.3%
[3]; 25.0 μM AT-0174
  viability at 25 µM: 97.9 ± 2.1%
[3]; 50.0 μM AT-0174
  viability at 50 µM: 92.2 ± 15.6%
[4]
  IC50 at 24 h: > 100 µM
[5]
  tumor weight: Significant reduction in tumor weight
  Tumor growth: significantly reduced
[5]; day 1
  tumor volume, Mean: 57.0 mm^3
[5]; day 2
  tumor volume, Mean: 93.0 mm^3
[5]; day 3
  tumor volume, Mean: 102.0 mm^3
[5]; day 4
  tumor volume, Mean: 115.0 mm^3
[5]; day 5
  tumor volume, Mean: 135.0 mm^3
[5]; day 6
  tumor volume, Mean: 153.0 mm^3
[5]; day 7
  tumor volume, Mean: 185.0 mm^3
[5]; day 8
  tumor volume, Mean: 198.0 mm^3
[5]; day 9
  tumor volume, Mean: 213.0 mm^3
[5]; day 10
  tumor volume, Mean: 228.0 mm^3
[5]; day 11
  tumor volume, Mean: 272.0 mm^3
[5]; day 12
  tumor volume, Mean: 280.0 mm^3
[5]; day 13
  tumor volume, Mean: 310.0 mm^3
[5]; day 14
  tumor volume, Mean: 345.0 mm^3
[5]; day 15
  tumor volume, Mean: 360.0 mm^3
[6]; 12.5 μM AT-0174
  viability at 12.5 µM: 92.8 ± 8.5%
[6]; 25.0 μM AT-0174
  viability at 25 µM: 75.1 ± 14.1%
[6]; 50.0 μM AT-0174
  viability at 50 µM: 74.4 ± 7.1%
[7]; 12.5 μM AT-0174
  viability at 12.5 µM: 78.8 ± 6.4%
[7]; 25.0 μM AT-0174
  viability at 25 µM: 65.3 ± 0.7%
[7]; 50.0 μM AT-0174
  viability at 50 µM: 59.9 ± 4.9%
[8]; 12.5 μM AT-0174
  viability at 12.5 µM: 78 ± 7.1%
[8]; 25.0 μM AT-0174
  viability at 25 µM: 96.8 ± 19.1%
[8]; 50.0 μM AT-0174
  viability at 50 µM: 70.2 ± 14%
[9]; 12.5 μM AT-0174
  viability at 12.5 µM: 65.7 ± 6.4%
[9]; 25.0 μM AT-0174
  viability at 25 µM: 68.1 ± 2.1%
[9]; 50.0 μM AT-0174
  viability at 50 µM: 70 ± 2.1%

## NS(=O)(=O)NCCNc1nonc1C(=NO)Nc1ccc(F)c(Br)c1 [Epacadostat, epacadostat, reference compound]
[5]
  tumor weight: reduction of the total tumor weight
  Tumor growth: significantly reduced
[5]; day 1
  tumor volume, Mean: 57.0 mm^3
[5]; day 2
  tumor volume, Mean: 89.0 mm^3
[5]; day 3
  tumor volume, Mean: 96.0 mm^3
[5]; day 4
  tumor volume, Mean: 126.0 mm^3
[5]; day 5
  tumor volume, Mean: 137.0 mm^3
[5]; day 6
  tumor volume, Mean: 158.0 mm^3
[5]; day 7
  tumor volume, Mean: 212.0 mm^3
[5]; day 8
  tumor volume, Mean: 291.0 mm^3
[5]; day 9
  tumor volume, Mean: 340.0 mm^3
[5]; day 10
  tumor volume, Mean: 390.0 mm^3
[5]; day 11
  tumor volume, Mean: 430.0 mm^3
[5]; day 12
  tumor volume, Mean: 490.0 mm^3
[5]; day 13
  tumor volume, Mean: 511.0 mm^3
[5]; day 15
  tumor volume, Mean: 565.0 mm^3
